Measured values as given in BigSolDB 2.1.

CO/N=C(\C(=O)O)c1csc(N)n1
solubility (mole fraction) (in ethanol, 283.12 K): 6.9e-05
solubility (mole fraction) (in ethanol, 288.42 K): 8.31e-05
solubility (mole fraction) (in ethanol, 293.23 K): 0.000101
solubility (mole fraction) (in ethanol, 298.17 K): 0.000124
solubility (mole fraction) (in ethanol, 303.33 K): 0.000151
solubility (mole fraction) (in ethylene glycol, 283.11 K): 0.00129
solubility (mole fraction) (in ethylene glycol, 288.68 K): 0.00152
solubility (mole fraction) (in ethylene glycol, 293.41 K): 0.00175
solubility (mole fraction) (in ethylene glycol, 298.26 K): 0.002
solubility (mole fraction) (in ethylene glycol, 303.46 K): 0.0023
solubility (mole fraction) (in methanol, 283.75 K): 0.000293
solubility (mole fraction) (in methanol, 288.17 K): 0.000334
solubility (mole fraction) (in methanol, 293.36 K): 0.00038
solubility (mole fraction) (in methanol, 298.26 K): 0.00043
solubility (mole fraction) (in methanol, 303.1 K): 0.000489
solubility (mole fraction) (in n-propanol, 282.85 K): 2.14e-05
solubility (mole fraction) (in n-propanol, 288.05 K): 2.49e-05
solubility (mole fraction) (in n-propanol, 293.09 K): 3.1e-05
solubility (mole fraction) (in n-propanol, 298.3 K): 4.25e-05
solubility (mole fraction) (in n-propanol, 303.08 K): 5.94e-05
solubility (mole fraction) (in water, 283.67 K): 0.000356
solubility (mole fraction) (in water, 288.48 K): 0.000416
solubility (mole fraction) (in water, 293.22 K): 0.000483
solubility (mole fraction) (in water, 298.36 K): 0.000557
solubility (mole fraction) (in water, 303.22 K): 0.000637
